Data taken from ChEMBL document CHEMBL5260816, “Synthesis and biological evaluation of the natural product komaroviquinone and related compounds aiming at a potential therapeutic lead compound for high-risk multiple myeloma” (Bioorg Med Chem Lett, 2017).

What was measured:
[1] = Cytotoxicity against human MUM24 cells assessed as reduction in cell viability incubated for 48 hrs by MTT assay; type: functional, cell-based; details: MUM24, 48 h
[2] = Toxicity in ICR mouse bone marrow cells assessed as inhibition of cell differentiation incubated for 14 days by colony forming cell assay; type: cell-based; details: 336 h, time 14 day
[3] = Toxicity in ICR mouse bone marrow cells assessed as inhibition of cell differentiation at higher concentration incubated for 14 days by colony forming cell assay; type: cell-based; details: 336 h, time 14 day
[4] = Toxicity in ICR mouse bone marrow cells assessed as inhibition of cell differentiation at 1 uM incubated for 14 days by colony forming cell assay; type: cell-based; details: 336 h, time 14 day

Row | SMILES | IC50 [1] | further results
1 | COc1cc(C[C@@]23CCCC(C)(C)[C@@H]2CC(=O)O3)c(OC)c(OC)c1C(C)C | 4.97 µM | 
2 | COC1=C(C(C)C)C(=O)C=C(C[C@@]23CCCC(C)(C)[C@@H]2CC(=O)O3)C1=O | < 3 µM | 
3 | COC1=C(C(C)C)C(=O)C=C(Cc2ccccc2)C1=O | < 3 µM | 
4 | COC1=C(C(C)C)C(=O)C=C(CNC(=O)C2CCCCC2)C1=O | < 3 µM | 
5 | COC1=C(C(C)C)C(=O)C=C(COC(C)C)C1=O | < 3 µM | 
6 | COC1=C(C(C)C)C(=O)C=C(COC(Cn2cncn2)c2ccc(F)cc2F)C1=O (centres undefined) | 3.31 µM | 
7 | COC1=C(C(C)C)C(=O)C=C(CC(O)(Cn2cncn2)c2ccc(F)cc2F)C1=O (centres undefined) | 2.49 µM | Activity [2]: Toxic
8 | COc1c2c(c(OC)c(C(C)C)c1OC)C(=O)CCC2 | > 30 µM | 
9 | COc1c(O)c2c(c(O)c1C(C)C)C(=O)C[C@H]1C(C)(C)CCC[C@]1(O)C2 | 6.13 µM | Activity [2]: Toxic
10 | COc1cc(CC(O)(Cn2cncn2)c2ccc(F)cc2F)c(OC)c(OC)c1C(C)C (centres undefined) | 9.85 µM | Activity [3]: Non-Toxic
11 | COc1c2c(c(OC)c(C(C)C)c1OC)C(=O)CCCC2 | > 30 µM | 
12 | COC1=C(C(C)C)C(=O)c2ccc(-c3ccccc3)nc2C1=O | 4.12 µM | 
13 | COc1c(OC(C)=O)c2c(c(OC(C)=O)c1C(C)C)C(=O)C[C@H]1C(C)(C)CCC[C@]1(O)C2 | 19.4 µM | 
14 | COc1c2c(c(OC)c(C(C)C)c1OC)C(=O)C[C@H]1C(C)(C)CCC[C@]1(O)C2 | > 10 µM | 
15 | COc1cc(CC2=CCCC(C)(C)[C@@H]2CC(=O)O)c(OC)c(OC)c1C(C)C | > 10 µM | 
16 | COc1c(OC(C)=O)c2c(c(O)c1C(C)C)C(=O)C[C@H]1C(C)(C)CCC[C@]1(O)C2 | 12.5 µM | 
17 | COC1=C(C(C)C)C(=O)c2cc3c(nc2C1=O)CCCC3 | 1.39 µM | 
18 | COc1cc(COC(Cn2cncn2)c2ccc(F)cc2F)c(OC)c(OC)c1C(C)C (centres undefined) | 7 µM | Activity [3]: Non-Toxic
19 | COC1=C(C(C)C)C(=O)C2=C(C[C@@]34CCCC(C)(C)[C@@H]3C[C@]2(O)O4)C1=O [KOMAROVIQUINONE] | 0.65 µM | Activity [4]: Toxic
